Measurements from patent US7981893B2, “Heteroaryl compounds, compositions thereof, and methods of treatment therewith” (Signal Pharmaceuticals, LLC, priority 2006, dated 2011).

melting point	Structure (SMILES)
256 to 258 °C	O=c1[nH]c2ncc(-c3ccc(O)cc3)nc2n1CC1CCOC1 (stereo not drawn) [Compound 172, 6-(4-Hydroxyphenyl)-1-((tetrahydrofuran-3-yl)methyl)-1H-imidazo[4,5-b]pyrazin-2(3H)-one]
275 to 277 °C	O=c1[nH]c2ncc(-c3ccc(CO)cc3)nc2n1CC1CCCCC1 [Compound 100, 1-(Cyclohexylmethyl)-6-(4-(hydroxymethyl)phenyl)-1H-imidazo[4,5-b]pyrazin-2(3H)-one]
295 to 297 °C	COc1cc(-c2cnc3[nH]c(=O)n(CC4CCCCC4)c3n2)ccn1 [Compound 136, 1-(Cyclohexylmethyl)-6-(2-methoxypyridin-4-yl)-1H-imidazo[4,5-b]pyrazin-2(3H)-one]
233 to 236 °C	NC(=O)c1ccc(-c2cnc3[nH]c(=O)n(CCC4CCOCC4)c3n2)cc1 [Compound 149, 4-(2-oxo-3-(2-(Tetrahydro-2H-pyran-4-yl)ethyl)-2,3-dihydro-1H-imidazo[4,5-b]pyrazin-5-yl)benzamide]
313 to 316 °C	O=C1Cc2cc(-c3cnc4[nH]c(=O)n(CC5CCCCC5)c4n3)ccc2N1 [Compound 129, 1-(Cyclohexylmethyl)-6-(2-oxoindolin-5-yl)-1H-imidazo[4,5-b]pyrazin-2(3H)-one]
253 to 255 °C	COC(=O)c1ccc(-c2cnc3[nH]c(=O)n(CC4CCCCC4)c3n2)cc1 [Compound 97, Methyl 4-(3-(cyclohexylmethyl)-2-oxo-2,3-dihydro-1H-imidazo[4,5-b]pyrazin-5-yl)benzoate]
194 to 197 °C	Cl.O=c1[nH]c2ncc(-c3ccc(-c4nnc[nH]4)cc3)nc2n1CCN1CCCCC1
290 to 292 °C	Cc1nc(-c2ccc(-c3cnc4[nH]c(=O)n(CCC5CCOCC5)c4n3)cc2)n[nH]1 [Compound 215, 6-(4-(5-methyl-1H-1,2,4-triazol-3-yl)phenyl)-1-(2-(tetrahydro-2H-pyran-4-yl)ethyl)-1H-imidazo[4,5-b]pyrazin-2(3H)-one]
256 to 258 °C	O=c1[nH]c2ncc(-c3ccc(O)cc3)nc2n1CC1CCCO1 (stereo not drawn) [Compound 165, 6-(4-Hydroxyphenyl)-1-((tetrahydrofuran-2-yl)methyl)-1H-imidazo[4,5-b]pyrazin-2(3H)-one]
267 to 269 °C	O=c1[nH]c2ncc(-c3ccncc3)nc2n1CC1CCCCC1 [Compound 98, 1-(Cyclohexylmethyl)-6-(pyridin-4-yl)-1H-imidazo[4,5-b]pyrazin-2(3H)-one]
255 to 257 °C	N#Cc1ccc(-c2cnc3[nH]c(=O)n(CC4CCCCC4)c3n2)cc1 [Compound 110, 4-(3-(Cyclohexylmethyl)-2-oxo-2,3-dihydro-1H-imidazo[4,5-b]pyrazin-5-yl)benzonitrile]
273 to 275 °C	CNC(=O)c1ccc(-c2cnc3[nH]c(=O)n(CC4CCCCC4)c3n2)cc1 [Compound 99, 4-(3-(Cyclohexylmethyl)-2-oxo-2,3-dihydro-1H-imidazo[4,5-b]pyrazin-5-yl)-N-methylbenzamide]
293 to 295 °C	O=c1[nH]c2ncc(-c3ccc(-c4ncc[nH]4)cc3)nc2n1CCC1CCOCC1 [Compound 216, 6-(4-(1H-imidazol-2-yl)phenyl)-1-(2-(tetrahydro-2H-pyran-4-yl)ethyl)-1H-imidazo[4,5-b]pyrazin-2(3H)-one]
258 to 260 °C	O=c1[nH]c2ncc(-c3ccc(-c4n[nH]c(CO)n4)cc3)nc2n1CC1CCOCC1 [Compound 196, 6-(4-(5-(Hydroxymethyl)-1H-1,2,4-triazol-3-yl)phenyl)-1-((tetrahydro-2H-pyran-4-yl)methyl)-1H-imidazo[4,5-b]pyrazin-2(3H)-one]
264 to 265 °C	O=c1[nH]c2ncc(-c3ccc4[nH]cnc4c3)nc2n1CCC1CCOCC1 [Compound 227, 6-(1H-benzo[d]imidazol-5-yl)-1-(2-(tetrahydro-2H-pyran-4-yl)ethyl)-1H-imidazo[4,5-b]pyrazin-2(3H)-one]
> 260 °C	CNc1ccc(-c2cnc3[nH]c(=O)n(CC4CCOCC4)c3n2)cn1 [Compound 235, 6-(6-(Methylamino)pyridin-3-yl)-1-((tetrahydro-2H-pyran-4-yl)methyl)-1H-imidazo[4,5-b]pyrazin-2(3H)-one]
359 to 363 °C	O=c1[nH]c2ncc(-c3ccc4cc[nH]c4c3)nc2n1CC1CCCCC1 [Compound 106, 1-(Cyclohexylmethyl)-6-(1H-indol-6-yl)-1H-imidazo[4,5-b]pyrazin-2(3H)-one]
236 to 237 °C	COCCn1c(=O)[nH]c2ncc(-c3ccc(O)cc3)nc21 [Compound 117, 6-(4-Hydroxyphenyl)-1-(2-methoxyethyl)-1H-imidazo[4,5-b]pyrazin-2(3H)-one]
> 300 °C	O=c1[nH]c2ncc(-c3ccc(-c4nc5ccccc5[nH]4)cc3)nc2n1CC1CCOCC1 [Compound 194, 6-(4-(1H-Benzo[d]imidazol-2-yl)phenyl)-1-((tetrahydro-2H-pyran-4-yl)methyl)-1H-imidazo[4,5-b]pyrazin-2(3H)-one]
258 to 260 °C	NCc1nc(-c2ccc(-c3cnc4[nH]c(=O)n(CCC5CCOCC5)c4n3)cc2)n[nH]1 [Compound 220, 6-(4-(5-(aminomethyl)-1H-1,2,4-triazol-3-yl)phenyl)-1-(2-(tetrahydro-2H-pyran-4-yl)ethyl)-1H-imidazo[4,5-b]pyrazin-2(3H)-one]

melting point	Structure (SMILES)
250 to 254 °C (dec.)	Cc1nc(-c2ccc(-c3cnc4[nH]c(=O)n(CC5CCOCC5)c4n3)cc2)[nH]c1C [Compound 199, 6-(4-(4,5-Dimethyl-1H-imidazol-2-yl)phenyl)-1-((tetrahydro-2H-pyran-4-yl)methyl)-1H-imidazo[4,5-b]pyrazin-2(3H)-one]
328 to 330 °C	CNC(=O)c1ccc(-c2cnc3[nH]c(=O)n(CC4CCOCC4)c3n2)cc1 [Compound 142, N-Methyl-4-(2-oxo-3-((tetrahydro-2H-pyran-4-yl)methyl)-2,3-dihydro-1H-imidazo[4,5-b]pyrazin-5-yl)benzamide]
> 400 °C	O=c1[nH]c2ncc(-c3ccc(O)nc3)nc2n1CC1CCCCC1 [Compound 135, 1-(Cyclohexylmethyl)-6-(6-hydroxypyridin-3-yl)-1H-imidazo[4,5-b]pyrazin-2(3H)-one]
273 to 275 °C	NC(=O)c1ccc(-c2cnc3[nH]c(=O)n(CC4CCOCC4)c3n2)cc1 [Compound 143, 4-(2-oxo-3-((Tetrahydro-2H-pyran-4-yl)methyl)-2,3-dihydro-1H-imidazo[4,5-b]pyrazin-5-yl)benzamide]
281 to 283 °C	O=c1[nH]c2ncc(-c3ccc(-c4n[nH]c(CN5CCOCC5)n4)cc3)nc2n1CC1CCOCC1 [Compound 175, 6-(4-(5-(Morpholinomethyl)-1H-1,2,4-triazol-3-yl)phenyl)-1-((tetrahydro-2H-pyran-4-yl)methyl)-1H-imidazo[4,5-b]pyrazin-2(3H)-one]
382 to 383 °C	O=c1[nH]c2ncc(-c3ccc(O)cc3)nc2n1C1CCOCC1 [Compound 132, 6-(4-Hydroxyphenyl)-1-(tetrahydro-2H-pyran-4-yl)-1H-imidazo[4,5-b]pyrazin-2(3H)-one]
326 to 329 °C	Cl.NCc1nc(-c2ccc(-c3cnc4[nH]c(=O)n(CC5CCCCC5)c4n3)cc2)n[nH]1
293 to 295 °C	NC(=O)c1ccc(-c2cnc3[nH]c(=O)n(CC4CCCCC4)c3n2)cc1 [Compound 96, 4-(3-(Cyclohexylmethyl)-2-oxo-2,3-dihydro-1H-imidazo[4,5-b]pyrazin-5-yl)benzamide]
252 to 254 °C	CC(c1ccccc1)n1c(=O)[nH]c2ncc(-c3ccnc4ccccc34)nc21 (stereo not drawn) [Compound 70, 1-(1-phenylethyl)-6-(quinolin-4-yl)-1H-imidazo[4,5-b]pyrazin-2(3H)-one]
283 to 284 °C	O=c1[nH]c2ncc(-c3ccc(O)cc3)nc2n1CCc1ccccc1 [Compound 121, 6-(4-Hydroxyphenyl)-1-phenethyl-1H-imidazo[4,5-b]pyrazin-2(3H)-one]
> 250 °C	Nc1ncc(-c2cnc3[nH]c(=O)n(CC4CCCCC4)c3n2)cn1 [Compound 236, 6-(2-aminopyrimidin-5-yl)-1-(cyclohexylmethyl)-1H-imidazo[4,5-b]pyrazin-2(3H)-one]
264 to 268 °C	CC(C)NC(=O)c1ccc(-c2cnc3[nH]c(=O)n(CC4CCCCC4)c3n2)cc1 [Compound 104, 4-(3-(Cyclohexylmethyl)-2-oxo-2,3-dihydro-1H-imidazo[4,5-b]pyrazin-5-yl)-N-isopropylbenzamide]
264 to 266 °C	O=c1[nH]c2ncc(-c3ccn[nH]3)nc2n1CC1CCCCC1 [Compound 125, 1-(Cyclohexylmethyl)-6-(1H-pyrazol-5-yl)-1H-imidazo[4,5-b]pyrazin-2(3H)-one]
284 to 287 °C	O=c1[nH]c2ncc(-c3ccc(-n4ccnc4)cc3)nc2n1CC1CCCCC1 [Compound 151, 6-(4-(1H-Imidazol-1-yl)phenyl)-1-(cyclohexylmethyl)-1H-imidazo[4,5-b]pyrazin-2(3H)-one]
> 260 °C	Nc1ccc(-c2cnc3[nH]c(=O)n(CC4CCOCC4)c3n2)cn1 [Compound 232, 6-(6-Aminopyridin-3-yl)-1-((tetrahydro-2H-pyran-4-yl)methyl)-1H-imidazo[4,5-b]pyrazin-2(3H)-one]
305 to 306 °C	O=C1CCCN1CCCn1c(=O)[nH]c2ncc(-c3ccc(O)cc3)nc21 [Compound 176, 6-(4-Hydroxyphenyl)-1-(3-(2-oxopyrrolidin-1-yl)propyl)-1H-imidazo[4,5-b]pyrazin-2(3H)-one]
> 350 °C	O=C(O)c1ccc(-c2cnc3[nH]c(=O)n(CC4CCCCC4)c3n2)cc1 [Compound 116, 4-(3-(Cyclohexylmethyl)-2-oxo-2,3-dihydro-1H-imidazo[4,5-b]pyrazin-5-yl)benzoic acid]
208 to 210 °C	COCCCn1c(=O)[nH]c2ncc(-c3ccc(O)cc3)nc21 [Compound 118, 6-(4-Hydroxyphenyl)-1-(3-methoxypropyl)-1H-imidazo[4,5-b]pyrazin-2(3H)-one]
253 to 255 °C	O=c1[nH]c2ncc(-c3ccccc3)nc2n1CC1CCCCC1 [Compound 124, 1-(Cyclohexylmethyl)-6-phenyl-1H-imidazo[4,5-b]pyrazin-2(3H)-one]
